Data on 3 molecules can be found in publication PMC9040621 (2021).

For this test, the system named is d(CCAATTGG)2 (DNA, duplex) CCAATTGG
The test is described as follows: differential scanning calorimetry. The following applies: Na+ (sodium phosphate buffer); 100 μM DNA, compound/DNA = 1; free Tm 41.73 °C.
What is called ΔTm is the change in melting temperature against a reference sample. In the case of `O=c1cc(-c2ccccc2)oc2cc(O)c(O)c(O)c12`, the ΔTm came to 13.88 °C. Turning to `O=c1cc(-c2ccccc2)oc2cc(O)cc(O)c12`, the ΔTm stood at 12.14 °C. The same measure for `O=c1cc(-c2ccccc2)oc2ccccc12`: -2.07 °C.
